What is called IC50 is the concentration needed to halve the response being measured.

Data on seven molecules can be found in ChEMBL document CHEMBL6071189, “Exploring the 1-(4-Nitrophenyl)-3-arylprop-2-en-1-one Scaffold for the Selective Inhibition of Monoamine Oxidase B” (ACS Med Chem Lett, 2024).

The target in experiment [1] is T1, Amine oxidase [flavin-containing] A (Homo sapiens, UniProt P21397).
T1 sequence (P21397 whole entry): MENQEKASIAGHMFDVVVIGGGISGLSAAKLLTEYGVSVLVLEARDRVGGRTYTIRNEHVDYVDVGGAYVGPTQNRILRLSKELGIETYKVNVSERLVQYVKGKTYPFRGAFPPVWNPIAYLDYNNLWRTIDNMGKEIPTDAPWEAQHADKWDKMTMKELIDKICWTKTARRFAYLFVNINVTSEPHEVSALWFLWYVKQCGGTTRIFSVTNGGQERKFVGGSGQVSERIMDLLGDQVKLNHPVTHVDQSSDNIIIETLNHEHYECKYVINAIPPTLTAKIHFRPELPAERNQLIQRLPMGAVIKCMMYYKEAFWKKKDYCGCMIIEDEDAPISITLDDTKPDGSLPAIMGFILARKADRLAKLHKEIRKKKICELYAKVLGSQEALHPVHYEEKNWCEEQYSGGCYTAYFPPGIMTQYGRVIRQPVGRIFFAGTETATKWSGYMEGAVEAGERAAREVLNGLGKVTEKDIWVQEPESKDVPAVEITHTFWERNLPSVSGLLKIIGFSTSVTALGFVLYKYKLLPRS
In words: Inhibition of recombinant human MAO-A using tyramine hydrochloride as substrate preincubated for 5 mins followed by substrate addition and measured after 5 mins in presence of horse radish peroxidase by Ampliflu Red based fluorescence microplate reader.

The target of experiment [2] is T2, Amine oxidase [flavin-containing] B (Homo sapiens, UniProt P27338).
T2 sequence (P27338 whole entry): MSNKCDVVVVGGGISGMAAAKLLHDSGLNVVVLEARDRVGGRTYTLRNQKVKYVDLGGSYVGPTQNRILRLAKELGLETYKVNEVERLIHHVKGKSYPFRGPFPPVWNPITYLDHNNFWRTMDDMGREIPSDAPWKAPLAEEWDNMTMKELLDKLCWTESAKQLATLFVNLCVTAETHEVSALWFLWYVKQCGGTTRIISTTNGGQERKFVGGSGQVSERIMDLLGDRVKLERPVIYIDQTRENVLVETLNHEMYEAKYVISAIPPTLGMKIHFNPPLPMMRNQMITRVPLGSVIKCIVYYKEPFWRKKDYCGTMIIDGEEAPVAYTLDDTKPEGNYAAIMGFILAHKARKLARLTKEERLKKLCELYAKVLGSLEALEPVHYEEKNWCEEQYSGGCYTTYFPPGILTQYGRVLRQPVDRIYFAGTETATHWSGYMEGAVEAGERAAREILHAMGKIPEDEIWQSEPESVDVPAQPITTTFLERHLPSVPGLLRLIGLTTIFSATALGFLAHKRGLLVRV
Briefly: Inhibition of recombinant human MAO-B using tyramine hydrochloride as substrate preincubated for 5 mins followed by substrate addition and measured after 5 mins in presence of horse radish peroxidase by Ampliflu Red based fluorescence microplate reader.

For the next experiment, the species on record is Homo sapiens. In words: Selectivity index, ratio of IC50 for inhibition of recombinant human MAO-A to IC50 for inhibition of recombinant human MAO-B.

The structures appear in SMILES notation.

In the case of `O=C(/C=C/c1ccc2ccccc2c1)c1ccc([N+](=O)[O-])cc1`, the IC50 in experiment [1] was 13000 nM; in experiment [2] it was 21 nM. Besides, in the experiment listed under Homo sapiens, the Ratio IC50 was 620.
As for `O=C(/C=C/c1ccc(Cl)cc1)c1ccc([N+](=O)[O-])cc1`, the concentration for half-maximal inhibition (IC50) amounted to 52000 nM in experiment [1] and 10 nM in experiment [2]. In addition, in the experiment filed under Homo sapiens, the Ratio IC50 came to 5200.
For `O=C(/C=C/c1ccc(Cl)c(Cl)c1)c1ccc([N+](=O)[O-])cc1`, the figures for the concentration for half-maximal inhibition (IC50) in experiment [1] and in experiment [2] were 59000 nM and 2.2 nM, respectively. In addition, the Ratio IC50 in the experiment filed under Homo sapiens amounted to 27000.
With `Cc1ccccc1/C=C/C(=O)c1ccc([N+](=O)[O-])cc1`, the IC50 in experiment [1] turned out to be 89000 nM; in experiment [2], 120 nM. For the same molecule, the Ratio IC50 in the experiment listed under Homo sapiens amounted to 740.
As to `O=C(/C=C/c1ccc(F)cc1)c1ccc([N+](=O)[O-])cc1`, the 50% inhibitory concentration (IC50) is 7800 nM in experiment [1] and 48 nM in experiment [2]. The Ratio IC50 in the experiment listed under Homo sapiens was determined as 160.
In the case of `COc1ccc(/C=C/C(=O)c2ccc([N+](=O)[O-])cc2)cc1`, the IC50 was 27000 nM in experiment [1] and 93 nM in experiment [2]. Further, in the experiment listed under Homo sapiens, the Ratio IC50 worked out at 290.
For `Cc1ccc(/C=C/C(=O)c2ccc([N+](=O)[O-])cc2)cc1`, the IC50 was determined as 2700 nM in experiment [1] and 13 nM in experiment [2]. For the same molecule, the Ratio IC50 in the experiment filed under Homo sapiens turned out to be 210.
